From US20070161637A1, “Substituted pyridin-2-ylamine analogues” (Neurogen Corporation, priority 2003, published 2007)

Biological target: T1, human capsaicin receptor (Homo sapiens, UniProt Q8NER1)
T1 construct: transfected with the pBK-CMV expression construct encoding the full length human capsaicin receptor; expressed in transfected cells; host or cells: HEK293, stably transfected clonal lines, plasmid pBK-CMV
Assay: Calcium mobilization assay, determination of antagonist activity (Example 6)
Format: cell-based
Conditions: concentration giving 50% decrease in the fluorescence response of cells expressing human capsaicin receptor exposed to capsaicin
Procedure: A cDNA encoding full length human capsaicin receptor (SEQ ID NO:1, 2 or 3 of U.S. Pat. No. 6,482,611) was subcloned in the plasmid pBK-CMV (Stratagene, La Jolla, Calif.) for recombinant expression in mammalian cells.
Human embryonic kidney (HEK293) cells were transfected with the pBK-CMV expression construct encoding the full length human capsaicin receptor using standard methods. The transfected cells were selected for two weeks in media containing G418 (400 μg/ml) to obtain a pool of stably transfected cells. Independent clones were isolated from this pool by limiting dilution to obtain clonal stable cell lines for use in subsequent experiments.
(§1) Cells transfected with expression plasmids (as described in Example 4) and thereby expressing human capsaicin receptor are seeded and grown to 70-90% confluency in FALCON black-walled, clear-bottomed 96-well plates (#3904, BECTON-DICKINSON, Franklin Lakes, N.J.). The culture medium is emptied from the 96 well plates and FLUO-3 AM calcium sensitive dye (Molecular Probes, Eugene, Oreg.) is added to each well (dye solution: 1 mg FLUO-3 AM, 440 μL DMSO and 440 μl 20% pluronic acid in DMSO, diluted 1:250 in Krebs-Ringer HEPES (KRH) buffer (25 mM HEPES, 5 mM KCl, 0.96 mM NaH2PO4, 1 mM MgSO4, 2 mM CaCl2, 5 mM glucose, 1 mM probenecid, pH 7.4), 50 μl diluted solution per well). Plates are covered with aluminum foil and incubated at 37° C. for 1-2 hours in an environment containing 5% CO2. After the incubation, the dye is emptied from the plates, and the cells are washed once with KRH buffer, and resuspended in KRH buffer.
To measure the ability of a test compound to agonize or antagonize a calcium mobilization response in cells expressing capsaicin receptors to capsaicin or other vanilloid agonist, the EC50 of the agonist capsaicin is first determined. An additional 20 μl of KRH buffer and 1 μl DMSO is added to each well of cells, prepared as described above. 100 μl capsaicin in KRH buffer is automatically transferred by the FLIPR instrument to each well. Capsaicin-induced calcium mobilization is monitored using either FLUOROSKAN ASCENT (Labsystems; Franklin, Mass.) or FLIPR (fluorometric imaging plate reader system; Molecular Devices, Sunnyvale, Calif.) instruments. Data obtained between 30 and 60 seconds after agonist application are used to generate an 8-point concentration response curve, with final capsaicin concentrations of 1 nM to 3 μM. […] software (Synergy Software, Reading, Pa.) is used to fit the data to the equation: y=a*(1/(1+(b/x)^c)) to determine the 50% excitatory concentration (EC50) for the response. In this equation, y is the maximum fluorescence signal, x is the concentration of the agonist or antagonist (in this case, capsaicin), a is the Emax, b corresponds to the EC50 value and c is the Hill coefficient. Determination Agonist Activity
Test compounds are dissolved in DMSO, diluted in 20 μl KRH buffer so that the final concentration of test compounds in the assay well is between 1 μM and 5 μM, and added to cells prepared as described above. The 96 well plates containing prepared cells and test compounds are incubated in the dark, at room temperature for 0.5 to 6 hours. It is important that the incubation not continue beyond 6 hours. Just prior to determining the fluorescence response, 100 μl capsaicin in KRH buffer at twice the EC50 concentration determined as described above is automatically added by the FLIPR instrument to each well of the 96 well plate for a final sample volume of 200 μl and a final capsaicin concentration equal to the EC50. The final concentration of test compounds in the assay wells is between 1 μM and 5 μM.

T1 sequence (Q8NER1 whole entry): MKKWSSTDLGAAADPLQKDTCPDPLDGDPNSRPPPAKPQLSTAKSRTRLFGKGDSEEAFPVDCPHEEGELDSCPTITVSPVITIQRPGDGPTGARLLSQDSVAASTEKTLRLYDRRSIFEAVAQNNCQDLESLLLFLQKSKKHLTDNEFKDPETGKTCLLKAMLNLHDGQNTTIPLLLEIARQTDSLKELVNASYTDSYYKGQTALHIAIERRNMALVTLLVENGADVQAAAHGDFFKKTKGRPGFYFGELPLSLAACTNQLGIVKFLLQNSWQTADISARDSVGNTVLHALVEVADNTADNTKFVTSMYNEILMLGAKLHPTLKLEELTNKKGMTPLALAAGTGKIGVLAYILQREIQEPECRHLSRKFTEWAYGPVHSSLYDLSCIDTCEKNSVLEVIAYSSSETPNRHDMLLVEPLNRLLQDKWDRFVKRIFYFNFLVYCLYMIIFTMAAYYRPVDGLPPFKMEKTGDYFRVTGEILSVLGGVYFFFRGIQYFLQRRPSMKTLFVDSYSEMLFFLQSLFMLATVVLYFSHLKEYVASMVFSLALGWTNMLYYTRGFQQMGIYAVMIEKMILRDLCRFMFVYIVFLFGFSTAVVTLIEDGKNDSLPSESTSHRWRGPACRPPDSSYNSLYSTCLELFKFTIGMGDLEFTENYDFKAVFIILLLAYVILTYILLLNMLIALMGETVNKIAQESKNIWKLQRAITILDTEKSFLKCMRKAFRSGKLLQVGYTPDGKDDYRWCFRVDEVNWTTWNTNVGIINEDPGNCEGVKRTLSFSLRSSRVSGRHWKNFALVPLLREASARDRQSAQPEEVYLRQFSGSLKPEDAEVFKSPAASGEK

How did the IC50 turn out when `FC(F)(F)c1ccc(Nc2nc(NC3CCCCC3)nc(OCc3ccccc3C(F)(F)F)n2)cc1` [Compound 64, N-Cyclohexyl-6-(2-trifluoromethyl-benzyloxy)-N′-(4-trifluoromethyl-phenyl)-[1,3,5]triazine-2,4-diamine] was run?
Its IC50 is at most 1000 nM.

How did the IC50 turn out when `FC(F)(F)c1ccc(Nc2nc(NC3CCCC3)nc(OCc3ccccc3C(F)(F)F)n2)cc1` [Compound 65, N-Cyclopentyl-6-(2-trifluoromethyl-benzyloxy)-N′-(4-trifluoromethyl-phenyl)-[1,3,5]triazine-2,4-diamine] was run?
The IC50 was at most 1000 nM.

For `CC(C)CNc1nc(Nc2ccc(C(F)(F)F)cc2)nc(OCc2ccccc2C(F)(F)F)n1` [Compound 66, N-Isobutyl-6-(2-trifluoromethyl-benzyloxy)-N′-(4-trifluoromethyl-phenyl)-[1,3,5]triazine-2,4-diamine], which IC50 is on record?
Its IC50 is at most 1000 nM.

`CC(C)Nc1nc(Nc2ccc(C(F)(F)F)cc2)nc(OCc2ccccc2C(F)(F)F)n1` [Compound 67, N-Isopropyl-6-(2-trifluoromethyl-benzyloxy)-N′-(4-trifluoromethyl-phenyl)-[1,3,5]triazine-2,4-diamine] was tested. Which IC50 did it give?
Its IC50 is at most 1000 nM.

For `CC(C)(C)Nc1nc(Nc2ccc(C(F)(F)F)cc2)nc(OCc2ccccc2C(F)(F)F)n1` [Compound 68, N-tert-Butyl-6-(2-trifluoromethyl-benzyloxy)-N′-(4-trifluoromethyl-phenyl)-[1,3,5]triazine-2,4-diamine], which IC50 is on record?
The IC50 was at most 1000 nM.

Biological target: T1, human capsaicin receptor
Assay: Calcium mobilization assay, capsaicin agonist response (Example 6)
Format: cell-based
Conditions: capsaicin positive control, cells expressing human capsaicin receptor; read-out: approximate EC90 concentration
Procedure: as §1, with “Plates are covered with aluminum foil and incubated at 37° C. for 1-2 hours in an environment containing 5% CO2. After the incubation, the dye is emptied from the plates, and the cells are washed once with KRH buffer, and resuspended in KRH buffer.” left out
To measure the ability of a test compound to agonize or antagonize a calcium mobilization response in cells expressing capsaicin receptors to capsaicin or other vanilloid agonist, the EC50 of the agonist capsaicin is first determined. […] Capsaicin-induced calcium mobilization is monitored using either FLUOROSKAN ASCENT (Labsystems; Franklin, Mass.) or FLIPR (fluorometric imaging plate reader system; Molecular Devices, Sunnyvale, Calif.) instruments. […] In this equation, y is the maximum fluorescence signal, x is the concentration of the agonist or antagonist (in this case, capsaicin), a is the Emax, b corresponds to the EC50 value and c is the Hill coefficient. […]

`COc1cc(CNC(=O)CCCC/C=C/C(C)C)ccc1O` [capsaicin] was tested. Which EC90 did it give?
The EC90 was about 100 nM.
